{"source": "patent US20090018111A1", "about": "“Novel Antimicrobial Medicament” (priority 2004, published 2009)", "key": {"[1]": {"tested_on": "S. aureus SP-7928 (homo-MRSA)", "assay": "Sensitivity test (agar dilution)", "format": "cell-based, Staphylococcus aureus", "details": "Staphylococcus aureus, MRSA", "outline": "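Standard Japanese agar dilution method. Drugs alone or combined were serially halved in Mueller Hinton agar, inoculated with overnight (37° C) cultures at about 10^6 CFU/ml. Values are MICs.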"}, "[2]": {"tested_on": "Acinetobacter spp. Jan-81", "assay": "Sensitivity test (agar dilution), clinical isolate", "format": "cell-based, Acinetobacter calcoaceticus and Acinetobacter lwoffi", "description": "(§1) In addition, the antibacterial activities were tested against strains which are comparatively less sensitive to β-lactam compounds, namely clinically isolated 13 strains of Acinetobacter calcoaceticus and Acinetobacter lwoffi, clinically isolated 11 strains of Serratia marcescens, clinically isolated 12 strains of Burkholderia cepacia, and clinically isolated 15 strains of Pseudomonas aeruginosa.\n(§2) According to the standard method of Japan Chemotherapeutic Society (Chemotherapy, vol. […], p 76-79 (1981)) the test was carried out using the agar dilution method. After dissolving test samples in distilled water, agar medium containing the test samples was prepared in such a manner that the final concentration became twice serial dilution by pouring serially diluted combination drug solution or a single drug solution into agar medium. As agar medium was used Mueller Hinton Agar medium (MHA). Then, each strain was cultivated over night at 37° C. in an incubator and suspended in buffered saline solution with gelatin (BSG) in the concentration of about 10^6 CFU/ml. The suspension (about 5 μl) containing test strains was inoculated to the medium containing the test samples by Micro Planter.\n(§3) Each drug was weighed, and dissolved in distilled water to give a test sample. When the drugs are used in combination, two kinds of solution containing each drug were mixed so as to be various ratio of concentration to give a mixed solution. When the sample is subjected to sensitivity test, this mixed solution was diluted by twice serial dilution method.\n(§4) Furthermore, when the drug is solely used, each test sample was used as it is, and diluted by twice serial dilution method from the maximum concentration to the minimum concentration."}, "Acinetobacter spp. 14712": {"tested_on": "Acinetobacter spp. 14712", "assay": "Sensitivity test (agar dilution), clinical isolate", "format": "cell-based, Acinetobacter calcoaceticus and Acinetobacter lwoffi", "description": "as §1, §2, §3, §4"}, "[3]": {"tested_on": "Acinetobacter spp. Jan-99 (second line, r15)", "assay": "Sensitivity test (agar dilution), clinical isolate", "format": "cell-based, Acinetobacter calcoaceticus and Acinetobacter lwoffi", "description": "as §1, §2, §3, §4"}, "[4]": {"tested_on": "Acinetobacter spp. Jan-54", "assay": "Sensitivity test (agar dilution), clinical isolate", "format": "cell-based, Acinetobacter calcoaceticus and Acinetobacter lwoffi", "description": "as §1, §2, §3, §4"}, "Acinetobacter spp. 175": {"tested_on": "Acinetobacter spp. 175", "assay": "Sensitivity test (agar dilution), clinical isolate", "format": "cell-based, Acinetobacter calcoaceticus and Acinetobacter lwoffi", "description": "as §1, §2, §3, §4"}, "Acinetobacter spp. 227-1": {"tested_on": "Acinetobacter spp. 227-1", "assay": "Sensitivity test (agar dilution), clinical isolate", "format": "cell-based, Acinetobacter calcoaceticus and Acinetobacter lwoffi", "description": "as §1, §2, §3, §4"}, "[5]": {"tested_on": "Acinetobacter spp. 1338-2", "assay": "Sensitivity test (agar dilution), clinical isolate", "format": "cell-based, Acinetobacter calcoaceticus and Acinetobacter lwoffi", "description": "as §1, §2, §3, §4"}, "Acinetobacter spp. 256": {"tested_on": "Acinetobacter spp. 256", "assay": "Sensitivity test (agar dilution), clinical isolate", "format": "cell-based, Acinetobacter calcoaceticus and Acinetobacter lwoffi", "description": "as §1, §2, §3, §4"}, "[6]": {"tested_on": "Acinetobacter spp. Jan-99", "assay": "Sensitivity test (agar dilution), clinical isolate", "format": "cell-based, Acinetobacter calcoaceticus and Acinetobacter lwoffi", "description": "as §1, §2, §3, §4"}, "Acinetobacter spp. 1198": {"tested_on": "Acinetobacter spp. 1198", "assay": "Sensitivity test (agar dilution), clinical isolate", "format": "cell-based, Acinetobacter calcoaceticus and Acinetobacter lwoffi", "description": "as §1, §2, §3, §4"}}, "note": "Read-outs that look alike come from different tables or passages of the source.", "data": [{"molecule": "C[C@@H](O)[C@H]1C(=O)N2C(C(=O)O)=C(S[C@@H]3CN[C@H](C(=O)N(C)C)C3)[C@H](C)[C@H]12", "note": "[MEPM, meropenem]", "values": [{"measurement": "MIC", "setting": "[1]; Concomitant (MEPM:SM = 1:1), read-out: MIC", "value": 1, "unit": "µg/mL"}, {"measurement": "MIC", "setting": "[1]; Concomitant (MEPM:SM = 1:2), read-out: MIC", "value": 1, "unit": "µg/mL"}, {"measurement": "MIC", "setting": "[1]; Concomitant (MEPM:SM = 1:4), read-out: MIC", "value": 0.5, "unit": "µg/mL"}, {"measurement": "MIC", "setting": "[1]; Concomitant drug (MEPM:SM = 2:1), read-out: MIC", "value": 2, "unit": "µg/mL"}, {"measurement": "MIC", "setting": "[1]; alone, read-out: MIC", "value": 32, "unit": "µg/mL"}, {"measurement": "MIC", "setting": "[2]; Concomitant (ME:SM = 1:1)", "value": 8, "unit": "µg/mL"}, {"measurement": "MIC", "setting": "[2]; Concomitant (ME:SM = 1:2)", "value": 2, "unit": "µg/mL"}, {"measurement": "MIC", "setting": "[2]; Concomitant (ME:SM = 1:4)", "value": 2, "unit": "µg/mL"}, {"measurement": "MIC", "setting": "[2]; Concomitant (ME:SM = 2:1)", "value": 4, "unit": "µg/mL"}, {"measurement": "MIC", "setting": "[2]; alone", "value": 4, "unit": "µg/mL"}, {"measurement": "MIC", "setting": "Acinetobacter spp. 14712; SPP.14712, Concomitant (ME:SM = 1:1)", "value": 0.5, "unit": "µg/mL"}, {"measurement": "MIC", "setting": "Acinetobacter spp. 14712; SPP.14712, Concomitant (ME:SM = 1:2)", "value": 0.5, "unit": "µg/mL"}, {"measurement": "MIC", "setting": "Acinetobacter spp. 14712; SPP.14712, Concomitant (ME:SM = 1:4)", "value": 0.25, "unit": "µg/mL"}, {"measurement": "MIC", "setting": "Acinetobacter spp. 14712; SPP.14712, Concomitant (ME:SM = 2:1)", "value": 0.5, "unit": "µg/mL"}, {"measurement": "MIC", "setting": "Acinetobacter spp. 14712; SPP.14712, alone", "value": 1, "unit": "µg/mL"}, {"measurement": "MIC", "setting": "[3]", "value": 0.125, "unit": "µg/mL"}, {"measurement": "MIC", "setting": "[3]; Concomitant (ME:SM = 1:1), read-out: MIC", "value": 0.5, "unit": "µg/mL"}, {"measurement": "MIC", "setting": "[3]; Concomitant (ME:SM = 1:2), read-out: MIC", "value": 0.25, "unit": "µg/mL"}, {"measurement": "MIC", "setting": "[3]; Concomitant (ME:SM = 2:1), read-out: MIC", "value": 0.5, "unit": "µg/mL"}, {"measurement": "MIC", "setting": "[3]; alone, read-out: MIC", "value": 0.5, "unit": "µg/mL"}, {"measurement": "MIC", "setting": "[4]; Concomitant (ME:SM = 1:1)", "value": 0.5, "unit": "µg/mL"}, {"measurement": "MIC", "setting": "[4]; Concomitant (ME:SM = 1:2)", "value": 0.5, "unit": "µg/mL"}, {"measurement": "MIC", "setting": "[4]; Concomitant (ME:SM = 1:4)", "value": 0.25, "unit": "µg/mL"}, {"measurement": "MIC", "setting": "[4]; Concomitant (ME:SM = 2:1)", "value": 0.5, "unit": "µg/mL"}, {"measurement": "MIC", "setting": "[4]; alone", "value": 1, "unit": "µg/mL"}, {"measurement": "MIC", "setting": "Acinetobacter spp. 175; Acinetobacter, SPP.175", "value": 0.125, "unit": "µg/mL"}, {"measurement": "MIC", "setting": "Acinetobacter spp. 175; Acinetobacter, SPP.175, Concomitant (ME:SM = 1:2), read-out: MIC", "value": 0.063, "unit": "µg/mL"}, {"measurement": "MIC", "setting": "Acinetobacter spp. 175; Acinetobacter, SPP.175, Concomitant (ME:SM = 1:4), read-out: MIC", "value": 0.063, "unit": "µg/mL"}, {"measurement": "MIC", "setting": "Acinetobacter spp. 175; Concomitant (ME:SM = 1:1)", "value": 0.125, "unit": "µg/mL"}, {"measurement": "MIC", "setting": "Acinetobacter spp. 175; Concomitant (ME:SM = 2:1)", "value": 0.125, "unit": "µg/mL"}, {"measurement": "MIC", "setting": "Acinetobacter spp. 227-1; SPP.2271, Concomitant (ME:SM = 1:1)", "value": 0.5, "unit": "µg/mL"}, {"measurement": "MIC", "setting": "Acinetobacter spp. 227-1; SPP.2271, Concomitant (ME:SM = 1:2)", "value": 0.5, "unit": "µg/mL"}, {"measurement": "MIC", "setting": "Acinetobacter spp. 227-1; SPP.2271, Concomitant (ME:SM = 1:4)", "value": 0.25, "unit": "µg/mL"}, {"measurement": "MIC", "setting": "Acinetobacter spp. 227-1; SPP.2271, Concomitant (ME:SM = 2:1)", "value": 0.5, "unit": "µg/mL"}, {"measurement": "MIC", "setting": "Acinetobacter spp. 227-1; SPP.2271, alone", "value": 1, "unit": "µg/mL"}, {"measurement": "MIC", "setting": "[5]; SPP.13382", "value": 0.125, "unit": "µg/mL"}, {"measurement": "MIC", "setting": "[5]; SPP.13382, Concomitant (ME:SM = 1:1), read-out: MIC", "value": 0.5, "unit": "µg/mL"}, {"measurement": "MIC", "setting": "[5]; SPP.13382, Concomitant (ME:SM = 1:2), read-out: MIC", "value": 0.5, "unit": "µg/mL"}, {"measurement": "MIC", "setting": "[5]; SPP.13382, Concomitant (ME:SM = 2:1), read-out: MIC", "value": 0.5, "unit": "µg/mL"}, {"measurement": "MIC", "setting": "[5]; SPP.13382, alone, read-out: MIC", "value": 1, "unit": "µg/mL"}, {"measurement": "MIC", "setting": "Acinetobacter spp. 256; SPP.256, Concomitant (ME:SM = 1:1)", "value": 0.5, "unit": "µg/mL"}, {"measurement": "MIC", "setting": "Acinetobacter spp. 256; SPP.256, Concomitant (ME:SM = 1:2)", "value": 0.5, "unit": "µg/mL"}, {"measurement": "MIC", "setting": "Acinetobacter spp. 256; SPP.256, Concomitant (ME:SM = 1:4)", "value": 0.25, "unit": "µg/mL"}, {"measurement": "MIC", "setting": "Acinetobacter spp. 256; SPP.256, Concomitant (ME:SM = 2:1)", "value": 0.5, "unit": "µg/mL"}, {"measurement": "MIC", "setting": "Acinetobacter spp. 256; SPP.256, alone", "value": 1, "unit": "µg/mL"}, {"measurement": "MIC", "setting": "[6]; Acinetobacter", "value": 0.125, "unit": "µg/mL"}, {"measurement": "MIC", "setting": "[6]; Acinetobacter, Concomitant (ME:SM = 1:1), read-out: MIC", "value": 0.25, "unit": "µg/mL"}, {"measurement": "MIC", "setting": "[6]; Acinetobacter, Concomitant (ME:SM = 2:1), read-out: MIC", "value": 0.25, "unit": "µg/mL"}, {"measurement": "MIC", "setting": "[6]; Acinetobacter, alone, read-out: MIC", "value": 0.25, "unit": "µg/mL"}, {"measurement": "MIC", "setting": "[6]; Concomitant (ME:SM = 1:2)", "value": 0.125, "unit": "µg/mL"}, {"measurement": "MIC", "setting": "Acinetobacter spp. 1198; SPP.1198", "value": 0.125, "unit": "µg/mL"}, {"measurement": "MIC", "setting": "Acinetobacter spp. 1198; SPP.1198, Concomitant (ME:SM = 1:1), read-out: MIC", "value": 0.25, "unit": "µg/mL"}, {"measurement": "MIC", "setting": "Acinetobacter spp. 1198; SPP.1198, Concomitant (ME:SM = 1:4), read-out: MIC", "value": 0.063, "unit": "µg/mL"}, {"measurement": "MIC", "setting": "Acinetobacter spp. 1198; SPP.1198, Concomitant (ME:SM = 2:1), read-out: MIC", "value": 0.25, "unit": "µg/mL"}, {"measurement": "MIC", "setting": "Acinetobacter spp. 1198; SPP.1198, alone, read-out: MIC", "value": 0.5, "unit": "µg/mL"}]}, {"molecule": "C[C@H]1[C@H](NC(=O)/C(=N\\OC(C)(C)C(=O)O)c2csc(N)n2)C(=O)N1S(=O)(=O)O", "note": "[AZT, aztreonam]", "values": [{"measurement": "MIC", "setting": "[1]; Concomitant (AZT:SM = 1:1), S. aureus SP-7928 (homo-MRSA), read-out: MIC concomitant", "value": 2, "unit": "µg/mL"}, {"measurement": "MIC", "setting": "[1]; drug alone, S. aureus SP-7928 (homo-MRSA), read-out: MIC alone", "value": "> 32", "unit": "µg/mL"}]}]}
